In US7138140B2, “Suplatast tosilate crystals” (Taiho Pharmaceutical Co., Ltd., priority 2001, dated 2006):

How the values were obtained:
Assay type in all cases: physicochemical
[1] = Measurement of an optically active substance ratio (chiral stationary phase column); settings: p-toluenesulfonate; for Optically active substance ratio ((+)/(−)): crystals, Chiralcel OD-H column; for Optically active substance ratio of the suplatast tosilate in the mother liquor: mother liquor after crystallization
Procedure: [Test 1] Measurement of an Optically Active Substance Ratio
The optically active substance ratio of each of the suplatast tosilate crystals of the present invention obtained in Examples 1 to 3, and the suplatast tosilate first crystals obtained in Comparative Examples 1 to 3 was measured using a chiral stationary phase column (“Chiralcel OD-H”, 4.6 mm×25 cm, product of Daicel Chemical Industries) with n-hexane ethanol-trifluoroacetic acid-diethylamine (750:250:5:1) as a mobile phase.
The optically active substance ratio of the suplatast tosilate in the mother liquor in each of Examples and Comparative Examples was measured as described above. The ratio in Example 1 to 6 was from 0.99 to 1.01, while it was 0.57 in Comparative Example 1, 0.87 in Comparative Example 2, and 0.42 in Comparative Example 3. Accordingly, the invention crystal can be recovered again from the mother liquor, while the first crystal cannot be recovered from the mother liquor. Such a phenomenon owes to optical enrichment phenomenon typically observed upon formation of the first crystal.

[2] = Heat Stability Test (60° C., 3 months, glass air-tight container); settings: for Decomposition product (wt. %) formed, Lot 1: Lot 1, p-toluenesulfonate
Procedure: [Test 4] Heat Stability Test
The invention crystals of suplatast tosilate obtained in accordance with the process of Example 1 and commercially available suplatast tosilate first crystals, each 3.6 g, were stored at 60° C. for 3 months in a glass air-tight container and the formation amount and powder X-ray diffraction of a decomposition product ((±)-4-(3-ethoxy-2-hydroxypropoxy) aniline derivative) were measured to investigate heat storage stability.

[3] = Hygroscopicity Test 2 (storage at 40° C., relative humidity 50%, 14 days); settings: for Change in appearance on storage: p-toluenesulfonate
Procedure: [Test 3] Hygroscopicity Test 2
Each of the suplatast tosilate crystals of the invention obtained in Example 1, and the second crystals obtained in accordance with the process of Comparative Example 4 (each, 0.5 g) were stored at 40° C. and relative humidity of 50% for 14 days, followed by observation of their appearance, powder X-ray diffraction and differential scanning calorimetry (DSC) in order to investigate storage stability.

[4] = Hygroscopicity Test 1 (storage at 25° C., 75% RH, time-dependent weight change); settings: relative humidity 75%, FIG. 4
Procedure: FIG. 4 is a graph illustrating a water content increase, at 25° C. and relative humidity of 75%, of the invention crystal of suplatast tosilate (Example 1) suplatast tosilate first crystal (commercially available product) and suplatast tosilate second crystal (Comparative Example 4).
[Test 2] Hygroscopicity Test 1
In a dessicator (adjusted to 75% RH) having a saturated aqueous solution of sodium chloride charged therein, 1.0 g of each of the suplatast tosilate crystals of the invention obtained in Example 1, commercially available suplatast tosilate first crystals and the suplatast tosilate second crystals obtained in Comparative Example 4 were stored at 25° C. and a time-dependent weight change was measured.

[5] = 2 months, Lot 2, p-toluenesulfonate
[6] = 2 months, Lot 3, p-toluenesulfonate
[7] = 3 months, Lot 2, p-toluenesulfonate
[8] = 3 months, Lot 3, p-toluenesulfonate

SMILES: CCOCC(O)COc1ccc(NC(=O)CC[S+](C)C)cc1.Cc1ccc(S(=O)(=O)[O-])cc1 (racemic) [Comparative Example 1, (±)-[2-[4-(3-ethoxy-2-hydroxypropoxy)phenylcarbamoyl]ethyl] dimethylsulfonium p-toluenesulfonate]
- Optically active substance ratio ((+)/(−)) [1]: 1.09
- Optically active substance ratio of the suplatast tosilate in the mother liquor [1]: 0.57

SMILES: CCOCC(O)COc1ccc(NC(=O)CC[S+](C)C)cc1.Cc1ccc(S(=O)(=O)[O-])cc1 (racemic) [Comparative Example 2, (±)-[2-[4-(3-ethoxy-2-hydroxypropoxy)phenylcarbamoyl]ethyl] dimethylsulfonium p-toluenesulfonate]
- Optically active substance ratio ((+)/(−)) [1]: 0.97
- Optically active substance ratio of the suplatast tosilate in the mother liquor [1]: 0.87

SMILES: CCOCC(O)COc1ccc(NC(=O)CC[S+](C)C)cc1.Cc1ccc(S(=O)(=O)[O-])cc1 (racemic) [Comparative Example 3, (±)-[2-[4-(3-ethoxy-2-hydroxypropoxy)phenylcarbamoyl]ethyl] dimethylsulfonium p-toluenesulfonate]
- Optically active substance ratio ((+)/(−)) [1]: 0.94
- Optically active substance ratio of the suplatast tosilate in the mother liquor [1]: 0.42

SMILES: CCOCC(O)COc1ccc(NC(=O)CC[S+](C)C)cc1.Cc1ccc(S(=O)(=O)[O-])cc1 (racemic) [Example 1, (±)-[2-[4-(3-ethoxy-2-hydroxypropoxy)phenylcarbamoyl]ethyl] dimethylsulfonium p-toluenesulfonate]
- Optically active substance ratio ((+)/(−)) [1]: 1.00

SMILES: CCOCC(O)COc1ccc(NC(=O)CC[S+](C)C)cc1.Cc1ccc(S(=O)(=O)[O-])cc1 (racemic) [Example 2, (±)-[2-[4-(3-ethoxy-2-hydroxypropoxy)phenylcarbamoyl]ethyl] dimethylsulfonium p-toluenesulfonate]
- Optically active substance ratio ((+)/(−)) [1]: 1.00

SMILES: CCOCC(O)COc1ccc(NC(=O)CC[S+](C)C)cc1.Cc1ccc(S(=O)(=O)[O-])cc1 (racemic) [Example 3, (±)-[2-[4-(3-ethoxy-2-hydroxypropoxy)phenylcarbamoyl]ethyl] dimethylsulfonium p-toluenesulfonate]
- Optically active substance ratio ((+)/(−)) [1]: 1.00

SMILES: CCOCC(O)COc1ccc(NC(=O)CC[S+](C)C)cc1.Cc1ccc(S(=O)(=O)[O-])cc1 (racemic) [Example 6, (±)-[2-[4-(3-ethoxy-2-hydroxypropoxy)phenylcarbamoyl]ethyl] dimethylsulfonium p-toluenesulfonate]
- Optically active substance ratio ((+)/(−)) [1]: around 1.00

SMILES: CCOCC(O)COc1ccc(NC(=O)CC[S+](C)C)cc1.Cc1ccc(S(=O)(=O)[O-])cc1 (racemic) [First crystal, (±)-[2-[4-(3-ethoxy-2-hydroxypropoxy)phenylcarbamoyl]ethyl] dimethylsulfonium p-toluenesulfonate]
- Decomposition product (wt. %) formed, Lot 1 ([2]; 1 month): 0.1 wt. %
- Decomposition product (wt. %) formed, Lot 2 ([2]; 1 month, Lot 2): 0.0 wt. %
- Decomposition product (wt. %) formed, Lot 3 ([2]; 1 month, Lot 3): 0.0 wt. %
- Decomposition product (wt. %) formed, Lot 1 ([2]; 2 months): 1.1 wt. %
- Decomposition product (wt. %) formed, Lot 2 [2, 5]: 0.7 wt. %
- Decomposition product (wt. %) formed, Lot 3 [2, 6]: 0.5 wt. %
- Decomposition product formed after 3-month storage (over the lots) ([2]; 3 months): about 1.7 wt. %
- Decomposition product (wt. %) formed, Lot 1 ([2]; 3 months): 2.1 wt. %
- Decomposition product (wt. %) formed, Lot 2 [2, 7]: 1.5 wt. %
- Decomposition product (wt. %) formed, Lot 3 [2, 8]: 1.4 wt. %

SMILES: CCOCC(O)COc1ccc(NC(=O)CC[S+](C)C)cc1.Cc1ccc(S(=O)(=O)[O-])cc1 (racemic) [Invention crystal, (±)-[2-[4-(3-ethoxy-2-hydroxypropoxy)phenylcarbamoyl]ethyl] dimethylsulfonium p-toluenesulfonate]
- Change in powder X-ray diffraction peaks and DSC on storage [3]: almost free from a change in powder X-ray diffraction peaks and in DSC
- Change in appearance on storage [3]: almost free from a change in appearance
- Decomposition product (wt. %) formed, Lot 1 ([2]; 1 month): 0.0 wt. %
- Decomposition product (wt. %) formed, Lot 2 ([2]; 1 month, Lot 2): 0.0 wt. %
- Decomposition product (wt. %) formed, Lot 3 ([2]; 1 month, Lot 3): 0.0 wt. %
- Decomposition product (wt. %) formed, Lot 1 ([2]; 2 months): 0.0 wt. %
- Decomposition product (wt. %) formed, Lot 2 [2, 5]: 0.0 wt. %
- Decomposition product (wt. %) formed, Lot 3 [2, 6]: 0.0 wt. %
- Decomposition product after 3 months (in words) ([2]; 3 months): no decomposition product appeared
- Decomposition product (wt. %) formed, Lot 1 ([2]; 3 months): 0.0 wt. %
- Decomposition product (wt. %) formed, Lot 2 [2, 7]: 0.0 wt. %
- Decomposition product (wt. %) formed, Lot 3 [2, 8]: 0.0 wt. %
- Hygroscopicity (water content increase) [4]: lower hygroscopicity than each of the first crystal and second crystal

SMILES: CCOCC(O)COc1ccc(NC(=O)CC[S+](C)C)cc1.Cc1ccc(S(=O)(=O)[O-])cc1 (racemic) [second crystal, (±)-[2-[4-(3-ethoxy-2-hydroxypropoxy)phenylcarbamoyl]ethyl] dimethylsulfonium p-toluenesulfonate]
- Change in appearance on storage [3]: showed deliquescence after storage for one week
